{"source": "patent US10654836B2", "about": "“Pyrimidine derivative, method for preparing same and use thereof in medicine” (Zhejiang Hisun Pharmaceutical Co., Ltd., priority 2016, dated 2020)", "key": {"[1]": {"system": "hepatocellular carcinoma tumor cell Huh7 xenografts", "test": "Growth inhibition of Huh7 xenografts in tumor-bearing BALB/c nude mice", "format": "in vivo", "settings": "bid", "description": "On day 0, Huh7 cells were cultured in DMEM medium containing 10% of fetal bovine serum, 100 U of penicillin, and 100 μg/mL of streptomycin. And cultured in an incubator of 37° C., 5% CO2.\nEach mouse was inoculated subcutaneously in the right axilla with 150 μL of cell suspension (5.0×10^6 cells/mouse) under sterile conditions. On day 12 after inoculation, when the tumor grew to a volume of 200-300 mm^3, mice with similar tumor volume and good shape were selected (the shape was as single spherical as possible, no irregular shape or multiple tumors gathered together) and divided into 5 groups, each group had 9 mice.\n(§1) Each group of animals was administrated (intraperitoneal injection (ip) or oral administration (po)) a test substance twice a day (bid) at a fix time per day according to the body weight of the animals. The first dose was administered on the day of grouping ([…]), and continued for 22 days, the body weight of the animals was recorded daily.\nThe formation of tumor in the inoculated part of each group of animals was observed. The long diameter (Y) and short diameter (X) of the tumor nodules were measured twice a week using vernier calipers and calculated according to the following formula: Volume of tumor nodules(V): V=(X^2Y)/2.\nEvaluation index of antitumor activity: tumor growth inhibition rate TGI (%), relative tumor proliferation rate T/C (%).\nThe relative tumor volume (RTV) is calculated as: RTV=100×TVt/TVinitial\nwherein, TVinitial is the tumor volume measured at the time of grouping administration; TVt is the tumor volume at each measurement during administration.\nThe calculation formula for the relative tumor proliferation rate (% T/C) is: % T/C=100%×(RTVT/RTVC)\nwherein, RTVT represents RTV of the treatment group; RTVC represents RTV of the solvent control group.\nwherein, TVt(T) represents the tumor volume at each measurement in the treatment group; TVinitial(T) represents the tumor volume of the treatment group at the time of grouping administration; TVt(C) represents the tumor volume at each measurement in the solvent control group; TVinitial(C) represents the tumor volume of the solvent control group at the time of grouping administration.\nwherein, WC represents the tumor weight of the control group; WT represents the tumor weight of the treatment group."}, "[2]": {"test": "Body weight and weight loss rate of Huh7 tumor-bearing BALB/c nude mice during administration", "format": "in vivo", "settings": "25 mg/kg IP, bid", "description": "as §1\nThe calculation formula for the weight loss rate of animals is (see FIG. 3 for the results): Weight loss rate of animals=100%×(BWinitial−BWt)/BWinitial\nwherein, BWt represents the body weight of the animal at each measurement during administration; BWinitial represents the body weight of the animal at the time of grouping administration."}, "[3]": {"system": "hepatocellular carcinoma tumor cells Huh7", "test": "Huh7 tumor cell proliferation inhibition (CCK-8)", "format": "cell-based, human", "settings": "72 hours culture", "method": "For the FGFR4 subtype, hepatocellular carcinoma tumor cells Huh7 (purchased from the Cell Resource Center of Shanghai Institutes for Biological Sciences, Chinese Academy of Sciences) were used to determine the inhibition against the activity of hepatocellular carcinoma tumor cells. Huh7 cells were cultured in a DMEM medium containing 10% of fetal bovine serum, 100 U of penicillin and 100 μg/mL of streptomycin. Cultured in an incubator of 37° C., 5% CO2. Hepatocellular carcinoma tumor cell activity was measured by using a kit of Cell Counting Kit-8 (Dojindo, Dojindo Molecular Technologies, Inc).\nThe experimental method was carried out according to the steps of the kit instructions, and is briefly described as follows: the test compound was first dissolved in DMSO to prepare a stock solution, and then gradiently diluted with the corresponding medium of the cells to prepare a test sample, and the final concentration of the compound was in the range of 30 μM to 0.01 nM. Tumor cells in the logarithmic phase were seeded into 96-well cell culture plates at a suitable density, cultured in an incubator of 37° C., 5% CO2 overnight, then test compound samples were added and continued to culture the cells for 72 hours."}, "[4]": {"settings": "25 mg/kg IP, end of the experiment"}}, "data": [{"smiles": "C=CC(=O)Nc1cc(N2CCN(CC)C3(CC3)C2)ccc1Nc1cc(N(C)C(=O)Nc2c(Cl)c(OC)cc(OC)c2Cl)ncn1", "note": "[Example 5, N-(2-((6-(3-(2,6-Dichloro-3,5-dimethoxyphenyl)-1-methylureido)pyrimidin-4-yl)amino)-5-(4-ethyl-4,7-diazaspiro[2.5]octan-7-yl)phenyl)acrylamide]", "values": [{"measurement": "Tumor weight (g) Mean ± standard error", "setting": "[1]; [4]", "result": "0.8393 ± 0.0602", "unit": "g"}, {"measurement": "Tumor weight (g) Mean ± standard error", "setting": "[1]; 50 mg/kg IP, end of the experiment", "result": "0.6473 ± 0.0597", "unit": "g"}, {"measurement": "Tumor weight (g) Mean ± standard error", "setting": "[1]; 300 mg/kg PO, end of the experiment", "result": "0.0562 ± 0.0069", "unit": "g"}]}, {"smiles": "C=CC(=O)Nc1cc(N2CCN(CC)CC2)ccc1Nc1cc(N(C)C(=O)Nc2c(Cl)c(OC)cc(OC)c2Cl)ncn1", "note": "[Example 108 of WO2015057938, reference compound]", "values": [{"measurement": "Animal body weight ± standard error", "setting": "[2]; Day 13 after inoculation", "result": "18.0 ± 0.3", "unit": "g"}, {"measurement": "weight loss rate (%)", "setting": "[2]; Day 13 after inoculation", "result": 0, "unit": "%"}, {"measurement": "Animal body weight ± standard error", "setting": "[2]; Day 16 after inoculation", "result": "18.1 ± 0.3", "unit": "g"}, {"measurement": "weight loss rate (%)", "setting": "[2]; Day 16 after inoculation", "result": "−0.62", "unit": "%"}, {"measurement": "Animal body weight ± standard error", "setting": "[2]; Day 20 after inoculation", "result": "19.2 ± 0.4", "unit": "g"}, {"measurement": "weight loss rate (%)", "setting": "[2]; Day 20 after inoculation", "result": "−6.7", "unit": "%"}, {"measurement": "Animal body weight ± standard error", "setting": "[2]; Day 23 after inoculation", "result": "18.3 ± 0.2", "unit": "g"}, {"measurement": "weight loss rate (%)", "setting": "[2]; Day 23 after inoculation", "result": "−2.0", "unit": "%"}, {"measurement": "Animal body weight ± standard error", "setting": "[2]; Day 27 after inoculation", "result": "18.4 ± 0.3", "unit": "g"}, {"measurement": "weight loss rate (%)", "setting": "[2]; Day 27 after inoculation", "result": "−2.7", "unit": "%"}, {"measurement": "Animal body weight ± standard error", "setting": "[2]; Day 30 after inoculation", "result": "18.7 ± 0.2", "unit": "g"}, {"measurement": "weight loss rate (%)", "setting": "[2]; Day 30 after inoculation", "result": "−4.2", "unit": "%"}, {"measurement": "Animal body weight ± standard error", "setting": "[2]; Day 34 after inoculation", "result": "18.9 ± 0.3", "unit": "g"}, {"measurement": "weight loss rate (%)", "setting": "[2]; Day 34 after inoculation", "result": "−5.0", "unit": "%"}, {"measurement": "IC50", "setting": "[3]", "result": 18, "unit": "nM"}, {"measurement": "Tumor growth inhibition rate (TGI %)", "setting": "[1]; 25 mg/kg IP, Day 16 after inoculation", "result": 34, "unit": "%"}, {"measurement": "Tumor growth inhibition rate (TGI %)", "setting": "[1]; 25 mg/kg IP, Day 20 after inoculation", "result": 21, "unit": "%"}, {"measurement": "Tumor growth inhibition rate (TGI %)", "setting": "[1]; 25 mg/kg IP, Day 23 after inoculation", "result": 21, "unit": "%"}, {"measurement": "Tumor growth inhibition rate (TGI %)", "setting": "[1]; 25 mg/kg IP, Day 27 after inoculation", "result": 29, "unit": "%"}, {"measurement": "Tumor growth inhibition rate (TGI %)", "setting": "[1]; 25 mg/kg IP, Day 30 after inoculation", "result": 24, "unit": "%"}, {"measurement": "Tumor growth inhibition rate (TGI %)", "setting": "[1]; 25 mg/kg IP, Day 34 after inoculation", "result": 16, "unit": "%"}, {"measurement": "Tumor weight (g) Mean ± standard error", "setting": "[1]; [4]", "result": "0.9106 ± 0.0583", "unit": "g"}, {"measurement": "Tumor weight inhibition rate (%)", "setting": "[1]; [4]", "result": 2.2, "unit": "%"}]}]}
